Marks after values point to notes of the source that are not given here.

Data set [1] has as its system human breast cancer carcinoma MT-3. In words: Tumor growth inhibition, s.c. MT-3 xenografts in nude mice (doxorubicin conjugates). The following applies: 8 mg/kg/inj. i.v. The class given is in vivo, NMRI:nu/nu mice. The text has this: (§1) For all in vivo studies in which doxorubicin conjugates wer administred, adult female NMRI:nu/nu mice (TACONIC Europe, Lille Skensved, Denmark) were used throughout the study.
(§2) The human breast cancer carcinoma MT-3, human ovarian cancer carcinoma ovcar-3 and human mamma carcinoma MT3-ADR were used as s.c. xenotransplantation model in immunodeficient female […] mice (see table 17).
(§3) The cells were obtained from ATCC and are cryo-preserved within the EPO tumor bank. They were thawed, expanded in vitro and transplanted as cell suspension subcutaneously (s.c.) in female NMRI:nu/nu mice. The tumor lines MT-3, ovcar-3 and MT3-ADR are used for testing new anticancer drugs or novel therapeutic strategies. It was therefore selected for this study. MT-3, ovcar-3 and MT3-ADR xenografts are growing relatively fast and uniform.
(§4) For experimental use 5*10^6 to 10^7 tumor cells/mouse from the in vitro passage were transplanted s.c. into the flank of each of 10 mice/group at day 0.
(§5) At palpable tumor size (30-100 mm^3) treatment started. The application volume was 0.2 ml/20 g mouse body weight. The test compounds, the vehicle controls and the reference compounds were all given intravenously (i.v.).
(§6) Tumor growth inhibition was used as therapeutic parameter. Additionally, body weight change was determined as signs for toxicity (particularly, potential hematological or gastrointestinal side effects).
(§7) Tumor diameters were measured twice weekly with a caliper. Tumor volumes were calculated according to V=(length×(width)^2)/2. For calculation of the relative tumor volume (RTV) the tumor volumes at each measurement day were related to the day of first treatment. At each measurement day the median and mean tumor volumes per group and also the treated to control (T/C) values in percent were calculated (Table 10 to 15).
Descriptive statistics were performed on the data of body weight and tumor volume. […] Statistical evaluation was performed with the U-test of Mann and Whitney with a significance level of p≦0.05, using the Windows program […] 6.
The tested Doxorubicin conjugates CDx1 to CDx15 were obtained as described herein above and were kept in a freeze-dried form at −20° C. until the use. Before administration, the conjugates were dissolved in saline solution by vortexing in combination with centrifugation until a clear solution of the necessary concentration of the drug was obtained. The obtained solutions were prepared and injected under sterile conditions.
The reference compound was Doxorubicin (which is, for example, available as Doxorubicin NC® from Neocorp). Doxorubicin was stored in aliquots at 4° C. in the dark and diluted in saline before administration.
(§8) Tables 10 to 15 summarize the results for the tested, Doxorubicin conjugates and the reference compound Doxorubicin.

Data set [2] has as its system human ovarian cancer carcinoma ovcar-3. In words: Tumor growth inhibition, s.c. ovcar-3 xenografts in nude mice (doxorubicin conjugates). Particulars: Table 13; 8 mg/kg/inj. i.v., treatment d 5. The class given is in vivo, NMRI:nu/nu mice.
Description: as §1, §2, §3, §4, §5, §6, §7
(§9) Descriptive statistics were performed on the data of body weight and tumor volume. […] Statistical evaluation was performed with the U-test of Mann and Whitney with a significance level of p≦0.05, using the Windows program […] 6. […]

Data set [3] has as its system human mamma carcinoma MT3-ADR. In words: Tumor growth inhibition, s.c. MT3-ADR xenografts in nude mice (doxorubicin conjugates). The class given is in vivo, NMRI:nu/nu mice. The following applies: Table 14; 8 mg/kg/inj. i.v., treatment d 10.
Description: as §1, §2, §3, §4, §5, §6, §7, §9

Data set [4] can be described thus: Body weight change and toxic deaths in xenograft-bearing mice (doxorubicin studies). The following applies: for Toxic deaths: 7 mice. The class given is in vivo, NMRI:nu/nu mice. As for the experimental part:
as §1, §5, §6
Individual body weights of mice were determined twice weekly and mean body weight per group was related to the initial value in percent (body weight change, BWC).
On the day of necropsy the mice were sacrificed by cervical dislocation and inspected for gross organ changes.
as §8
The loss of body weight is known to be an indicator of gastro-intestinal and hepatotoxicity of the tested compound.

In data set [5] the test system is human breast cancer carcinoma MT-3. In words: Tumor growth inhibition, s.c. MT-3 xenografts in nude mice (epirubicin and idarubicin conjugates). The class given is in vivo, NMRI-nu/nu nude mice. Particulars: MT-3 subtype obtained from a different laboratory; unmodified drug. As for the experimental part:
All experiments were performed using 5-6 weeks old female NMRI^−nu/nu nude mice (approximate weight: 30 g after acclimatization). Mice were maintained in individual ventilated cages (IVC, max. 3 mice/cage) at constant temperature and humidity. Animal weights were taken every other day (Monday, Wednesday and Friday). Animal behavior was monitored daily. At study end, animals were sacrificed and in case the tumor volume was measured a necropsy was performed.
Monolayers of MT-3 cells were grown in DMEM 4500 with phenol red supplement with 10% FCS, 1% L-Glutamine, 100 units penicillin/ml, and 100 μg of streptomycin/ml. MT-3 cells were cultured in a humidified atmosphere of 90% air and 10% carbon dioxide at 37° C. Media were routinely changed every 3 days.
For experimental use 5×10^6 to 10^7 tumor cells/mouse from the in vitro passage were transplanted s.c. into the flank of each of 10 mice/group at day 0.
At palpable tumor size (30-100 mm^3) treatment was started. The application volume was 0.2 ml/20 g mouse body weight. The test compounds, the vehicle controls and the reference compounds were all given intravenously (i.v.).
Tumor growth inhibition was used as therapeutic parameter. Additionally, body weight change was determined as signs for toxicity (particularly, potential hematological or gastrointestinal side effects). […]

[6] abbreviates: Table 13, ovcar-3 model, 8 mg/kg/inj. i.v., treatment d 5.
[7] abbreviates: Table 14, MT3-ADR model, 8 mg/kg/inj. i.v., treatment d 10.

Regarding `COc1cccc2c1C(=O)c1c(O)c3c(c(O)c1C2=O)C[C@@](O)(C(=O)CO)C[C@@H]3O[C@H]1C[C@H](N)[C@H](O)[C@H](C)O1` [Doxorubicin], in data set [1] (Table 10, treatment d 7, 14), the “T/C (%) (TV) at the end” value was 1.16 +/− 0.35%, the “T/C (%) Optimum” value is reported as 32.2%, the “T/C (%) Optimum (at day)” value was “(18) day” and the “Tumor growth RTV d 28” value is listed as 10.8 +/− 3.7. Also, in data set [1] (Table 11, treatment d 10), the “T/C (%) Optimum” value was 30%, the “T/C (%) Optimum (at day)” value is given as “(21) day” and the “Tumor growth RTV d 28” value is 4.3 +/− 3.4. In addition, in data set [1] (Table 12, treatment d 7), the “RTV T/C (%) Optimum” value stood at 39.2%, the “RTV T/C (%) Optimum (at day)” value is listed as “(29) day” and the “Tumor growth RTV d 33” value is 5.59 +/− 0.78*. In data set [1] (Table 15, treatment d 7), the “T/C (%) Optimum” value was found to be 37.8%, the “T/C (%) Optimum (at day)” value was “(13) day” and the “Tumor growth RTV d 20” value is 8.1 +/− 2.1*. Besides, in data set [2], the “RTV T/C (%) Optimum” value worked out at 37.1%, the “RTV T/C (%) Optimum (at day)” value is on record as “(19) day” and the “Tumor growth RTV d 39” value is reported as 9.86 +/− 7.98. In data set [3], the “RTV T/C (%) Optimum” value is 58.4%, the “RTV T/C (%) Optimum (at day)” value is reported as “(29) day” and the “Tumor growth RTV d 31” value is 15.3 +/− 5.9*. Moreover, the “BWC (%) (d 10/d 28)” value in data set [4] (Table 11, MT-3 model, 8 mg/kg/inj. i.v., treatment d 10) is given as 2%. The “BWC [%] (at day)” value in data set [4] (Table 12, MT-3 model, 8 mg/kg/inj. i.v., treatment d 7) is listed as “(19) day”. Further, the “BWC [%]” value in data set [4] (Table 12, MT-3 model, 8 mg/kg/inj. i.v., treatment d 7, maximum body weight loss) is −2%. Also, in data set [4] (setting [6]), the “BWC [%] (at day)” value was “(7) day” and the Toxic deaths is recorded as 0. In data set [4] (Table 13, ovcar-3 model, 8 mg/kg/inj. i.v., treatment d 5, maximum body weight loss), the “BWC [%]” value is reported as −4%. In addition, in data set [4] (setting [7]), the “BWC [%] (at day)” value was “(25) day” and the Toxic deaths is 0. The “BWC [%]” value in data set [4] (Table 14, MT3-ADR model, 8 mg/kg/inj. i.v., treatment d 10, maximum body weight loss) is −8%. The “BWC (%) (d 7/d 20)” value in data set [4] (Table 15, MT-3 model, 8 mg/kg/inj. i.v., treatment d 7) is listed as −6%. Further, in data set [4] (mouse, in vivo, iv, 8 mg/kg), the “BWC (%): day of maximum body weight loss” value is recorded as “(d 24)” and the “BWC [%]” value is reported as −8%.

For `COc1cccc2c1C(=O)c1c(O)c3c(c(O)c1C2=O)C[C@@](O)(C(=O)CO)C[C@@H]3O[C@H]1C[C@H](N)[C@@H](O)[C@H](C)O1` [Epirubicin], the “sensibility of the MT-3 subtype towards anthracycline therapy” value in data set [5] was “no sensibility towards anthracycline therapy”.

`CC(=O)[C@]1(O)Cc2c(O)c3c(c(O)c2[C@@H](O[C@H]2C[C@H](N)[C@H](O)[C@H](C)O2)C1)C(=O)c1ccccc1C3=O` [Idarubicin]: the “sensibility of the MT-3 subtype towards anthracycline therapy” value in data set [5] is “no sensibility towards anthracycline therapy”.

The record behind these values is patent US20130178437A1, “CONJUGATES COMPRISING HYDROXYALKYL STARCH AND A CYTOTOXIC AGENT AND PROCESS FOR THEIR PREPARATION” (priority 2010, published 2013).
